Data as given in patent US20260234107A1, “TRYPTAMINES AND METHODS OF TREATING MOOD DISORDERS” (priority 2022, published 2026).
Read-outs that look alike come from different tables or passages of the source.

Tests used:
[1] = Stability in rat brain homogenate; format: in vitro ADME, male Sprague Dawley rats; conditions: rat brain homogenate, 1 μM, 37° C.; for half-life at 1 µM: male, Sprague Dawley
Experimental: Disclosed compounds were tested for stability in rat brain homogenate (Table 8). There was widely variable stability among the test compounds under the conditions of the experiment.
(§1) Rat Brain Homogenate Stability. Frozen rat brain homogenate (pooled from male Sprague Dawley rats, BioreclamationIVT, RAT00BRAINMZA) was thawed in a water bath at 37° C. immediately prior to use. Positive controls and test compounds (final concentration in incubation medium=1 μM for test compounds and 2 μM for controls, all with 2% DMSO) were incubated in duplicate for each time point (0, 10, 30, 60, and 120 min) in the rat brain homogenate at a total reaction volume of 100 μL at 37° C. At the end of each incubation period, reactions were immediately quenched with 400 μL of acetonitrile containing internal standard (200 ng/mL tolbutamine and 200 ng/mL labetalol) and mixed thoroughly. Plates were then sealed, shaken for 20 min, and centrifuged at 4,000 rpm and 4° C. for 20 min. Aliquots of 50 μL of each supernatant were diluted into 100 μL of water and the mixtures were then shaken again for 10 min.

[2] = Plasma pharmacokinetics in rats after intravenous administration; conditions: for AUC(0-t) / C0 / half-life: male, Sprague Dawley, rat, plasma, iv, 1 mg/kg; for plasma half-life (in words): rats, IV 1 mg/kg
[3] = Stability in mouse brain homogenate; format: in vitro ADME, male CD-1 mice; conditions: mouse brain homogenate, 1 μM, 37° C.; for half-life at 1 µM: male, CD-1
Experimental: Disclosed compounds were tested for stability in mouse brain homogenate (Table 7). There was widely variable stability among the test compounds under the conditions of the experiment.
as §1, with “Mouse Brain” for “Rat Brain”, “Frozen mouse” for “Frozen rat”, “male CD-1 mice,” for “male Sprague Dawley rats,”, “BioreclamationIVT, MSE00BRAINMZA)” for “BioreclamationIVT, RAT00BRAINMZA)”, “the mouse” for “the rat”

[4] = Metabolic stability in human liver microsomes (HLM); parameters: microsomal CLint / half-life: dose or concentration left out as unconfirmed; conditions: for half-life / microsomal CLint: both, human, pooled human liver microsomes, pH 7.4
[5] = tested on: monoamine oxidase A and B (MAO-A and MAO-B); assay: Stability in the presence of monoamine oxidases (human liver mitochondria preparation); parameters: half-life / microsomal CLint: dose or concentration left out as unconfirmed; conditions: for stability in the presence of MAO (in words): human liver mitochondria preparation; for Remaining (t = 60 min) / half-life / microsomal CLint: human liver mitochondria; for half-life / microsomal CLint: human, pH 7.4; for CLint(MAO) / t1/2: human liver mitochondria 0.30 mg protein/mL, 37° C.
Experimental: Liver Mitochondria Incubations. Human liver mitochondria (Xenotech H0610.M) were used.

[6] = Plasma pharmacokinetics in mice after subcutaneous administration; format: in vivo, male C57BL/6 mice; conditions: plasma, male C57BL/6 mice, SC 10 mg/kg
Source text: Animals. […] Four mice were housed in each cage. […] All animals were provided laboratory rodent diet. […] Animals were randomly assigned to treatment groups.

5-HT2B = molecular target: T1, 5-HT2B (Homo sapiens, UniProt P41595); assay: FLIPR Ca2+ flux agonist assay at 5-HT2B; format: cell-based; conditions: Ca2+ flux; for 5-HT2B % Act @ Max Dose: HEK293, max dose
T1 construct: host or cells: HEK293
T1 sequence (P41595 whole entry, species assumed): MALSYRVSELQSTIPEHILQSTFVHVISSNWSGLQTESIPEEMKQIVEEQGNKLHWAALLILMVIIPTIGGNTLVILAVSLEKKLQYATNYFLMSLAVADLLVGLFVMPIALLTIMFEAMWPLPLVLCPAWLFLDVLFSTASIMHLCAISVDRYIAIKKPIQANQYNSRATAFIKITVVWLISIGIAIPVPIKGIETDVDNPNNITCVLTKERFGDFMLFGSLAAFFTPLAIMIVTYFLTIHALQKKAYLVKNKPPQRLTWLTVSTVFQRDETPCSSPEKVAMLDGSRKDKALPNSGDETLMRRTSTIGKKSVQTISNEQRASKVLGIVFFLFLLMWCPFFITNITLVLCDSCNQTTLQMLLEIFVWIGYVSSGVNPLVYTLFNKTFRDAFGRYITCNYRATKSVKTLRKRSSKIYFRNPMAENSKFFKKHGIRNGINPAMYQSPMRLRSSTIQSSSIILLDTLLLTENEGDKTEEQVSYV
Experimental: (§2) A solution of 250 mM probenecid in 1 mL FLIPR assay buffer was prepared fresh. This was combined with a fluorescent dye (Fluo-4 Direct™) to make a final assay concentration of 2.5 mM. […] The fluorescent dye was then added to the assay plate along with assay buffer to a final volume of 40 μL. The cell plate was incubated for 50 min at 37° C. and 5% CO2 and placed into the FLIPR Tetra along with the compound plate. 10 μL of references and compounds were then transferred from the compound plate into the cell plate and the fluorescent signal was read.

5-HT2C receptor = molecular target: T2, 5-HT2C receptor (Homo sapiens, UniProt P28335); assay: cell-based; format: cell-based; conditions: Ca2+ flux
T2 sequence (P28335 33-458): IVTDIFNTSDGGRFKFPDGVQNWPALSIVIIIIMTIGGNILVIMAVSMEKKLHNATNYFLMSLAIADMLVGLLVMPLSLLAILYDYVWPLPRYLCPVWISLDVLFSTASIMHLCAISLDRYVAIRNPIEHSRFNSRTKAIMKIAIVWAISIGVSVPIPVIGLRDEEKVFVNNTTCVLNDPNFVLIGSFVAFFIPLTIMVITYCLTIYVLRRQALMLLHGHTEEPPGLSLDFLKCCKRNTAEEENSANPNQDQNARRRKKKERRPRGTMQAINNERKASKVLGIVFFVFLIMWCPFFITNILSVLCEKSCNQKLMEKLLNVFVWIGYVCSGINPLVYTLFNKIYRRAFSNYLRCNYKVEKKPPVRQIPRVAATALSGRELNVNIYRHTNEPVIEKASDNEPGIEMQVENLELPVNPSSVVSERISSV

rat synaptosomes = assay: Serotonin (5-HT) release from rat synaptosomes; format: biochemical, Male Sprague-Dawley rats; conditions: for EC50: rat synaptosomes preloaded with [3H]5-HT; for % Release @ Max Dose (10 μM): rat synaptosomes
Experimental: Disclosed compounds were assessed for their ability to release serotonin (5-HT) from […] (Table 9). Potency and efficacy for 5-HT release varied substantially depending on the specific compound. […] However, there was also substantial variability among 4-hydroxy compounds.
Synaptosome 5-HT Release Assay. Synaptosome release assays were conducted according to modifications of previously described procedures (Partilla et al. (2016). Interrogating the Activity of Ligands at Monoamine Transporters in Rat Brain Synaptosomes. In Neurotransmitter Transporters (pp. 41-52). Springer.). Briefly, synaptosomes were prepared from rat brains. Male Sprague-Dawley rats were rendered unconscious with CO2 and their brains were immediately removed. The cerebella were discarded and the whole brains (minus striatum) were placed in ice-cold 0.32 M sucrose (10 mL per brain) and gently homogenized by hand. The homogenate of each brain was centrifuged at 1,000×g at 4° C. for 10 mins and the resulting supernatant was diluted with ice-cold 0.32 M sucrose to a total volume of 10 mL to provide the synaptosome solution. Synaptosomes were then preloaded with 5 nM [^3H]5-HT in the presence of selective uptake inhibitors of DAT (50 nM GBR12935), NET (100 nM nomifensine), and VMAT2 (1 μM reserpine) in Krebs phosphate buffer (KPB). The incubations were allowed to reach equilibrium for 2 h at 25° C. For the release reactions, 425 μL of preloaded synaptosomes were added to test tubes containing 75 μL of test drugs diluted in KPB containing 1 mg/mL BSA. After 10 mins, the release reaction was stopped using a cell harvester by rapid vacuum filtration over GF/B filter paper presoaked in wash buffer (10 mM Tris-HCl, pH 7.4, 150 mM NaCl) and the filters were washed with additional wash buffer. Filters were dried for 1 h at 60° C. and retained radioactivity was quantified using a MicroBeta 2 liquid scintillation counter. The amount of retained radioactivity was inversely proportional to the extent of release.

5-HT1A = molecular target: T3, 5-HT1A (Homo sapiens, UniProt P08908); assay: FLIPR Ca2+ flux agonist assay at 5-HT1A; format: cell-based
T3 construct: host or cells: CHO cells
T3 sequence (P08908 1-422): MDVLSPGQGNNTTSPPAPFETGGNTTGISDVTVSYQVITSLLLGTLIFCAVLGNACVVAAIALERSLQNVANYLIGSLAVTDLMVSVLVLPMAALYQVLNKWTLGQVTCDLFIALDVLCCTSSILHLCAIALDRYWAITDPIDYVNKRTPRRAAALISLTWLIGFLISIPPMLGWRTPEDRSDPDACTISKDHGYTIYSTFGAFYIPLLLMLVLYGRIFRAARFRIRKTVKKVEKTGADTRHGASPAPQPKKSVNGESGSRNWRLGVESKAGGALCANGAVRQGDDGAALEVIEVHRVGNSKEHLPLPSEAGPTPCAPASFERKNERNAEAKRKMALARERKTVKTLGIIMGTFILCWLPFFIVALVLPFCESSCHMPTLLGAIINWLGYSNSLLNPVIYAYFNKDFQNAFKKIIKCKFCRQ
Experimental: as §2

5-HT2A [7] = molecular target: T4, 5-HT2A (Homo sapiens, UniProt P28223); assay: FLIPR Ca2+ flux agonist assay at 5-HT2A; format: cell-based; parameters: host or cells: HEK293; conditions: Ca2+ flux, HEK293; read-out: 5-HT2A EC50
T4 sequence (P28223 whole entry): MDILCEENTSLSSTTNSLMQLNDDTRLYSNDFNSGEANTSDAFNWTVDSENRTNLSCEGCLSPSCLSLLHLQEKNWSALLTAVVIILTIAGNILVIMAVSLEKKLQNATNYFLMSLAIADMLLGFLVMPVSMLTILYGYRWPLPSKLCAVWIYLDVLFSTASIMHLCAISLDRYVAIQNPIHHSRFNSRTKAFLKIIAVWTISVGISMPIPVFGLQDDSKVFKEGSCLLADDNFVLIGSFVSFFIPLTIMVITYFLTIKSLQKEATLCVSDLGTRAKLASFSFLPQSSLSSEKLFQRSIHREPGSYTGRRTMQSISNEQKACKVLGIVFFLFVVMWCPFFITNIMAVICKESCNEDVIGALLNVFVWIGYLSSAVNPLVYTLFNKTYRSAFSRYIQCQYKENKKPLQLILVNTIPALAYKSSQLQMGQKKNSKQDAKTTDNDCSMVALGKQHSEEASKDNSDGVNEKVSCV
Experimental: as §2

5-HT2A [8] = molecular target: T4, 5-HT2A; assay: 5-HT2A receptor radioligand binding ([3H]ketanserin)
Experimental: The binding affinities of disclosed compounds at the ketanserin binding site of the 5-HT2A receptor were determined in radioligand binding experiments.
Method. Affinity of the test compounds for the 5-HT2A receptor was determined in radioligand binding experiments with [^3H]ketanserin by WuXi AppTec (Hong Kong) Limited, using methods adapted from the literature and under conditions described in Table 4.

[9] = HLM 0.50 mg protein/mL, NADPH, 37° C., 60 minutes

| Structure (SMILES) | half-life at 1 µM [1] | % Compound Remaining (after 120 min) [1] | AUC(0-t) [2] | C0 [2] | half-life [2] | plasma half-life (in words) [2] | half-life at 1 µM [3] | % Compound Remaining (after 120 min) [3] | half-life [4] | microsomal CLint [4] | stability in the presence of MAO (in words) [5] | Remaining (t = 60 min) [5] | half-life [5] | 5-HT2B % Act @ Max Dose (5-HT2B) | EC50 (5-HT2C receptor) | EC50 (rat synaptosomes) | % Release @ Max Dose (10 μM) (rat synaptosomes) | CLint(MAO) [5] | t1/2 [5] | 5-HT1A % Act @ Max Dose (5-HT1A; Ca2+ flux, CHO cells) | other results |
| --- | --- | --- | --- | --- | --- | --- | --- | --- | --- | --- | --- | --- | --- | --- | --- | --- | --- | --- | --- | --- | --- |
| CNCCc1c[nH]c2cccc(O)c12 [Compound 2, 3-(2-(methylamino)ethyl)-1H-indol-4-ol] | 0.105 h | 0.2% | 21 ng·h/mL | 185 ng/mL | 0.18 h | very short half-lives | 0.233 h | 0.2% | 0.22 h | 105 µL/min/mg | highly unstable | 12.8% | 0.312 h | – | – | – | – | – | – | – | microsomal CLint [5]: 124 µL/min/mg |
| CCN(C)CCc1c[nH]c2cccc(O)c12 [Compound 4-HO-MET, reference compound] | – | 20.9% | – | – | – | – | – | 16.7% | – | – | stable | 112.3% | – | 1.1% | 37.8 nM | 496 nM | 56.9% | <15.9 µL/min/mg | >2.42 h | – | t1/2 [1]: 0.883 h; AUC(0-t) ([6]; mouse): 1410 ng·h/mL; Cmax ([6]; mouse): 1160 ng/mL; Tmax [6]: 4.8 min; t1/2 [6]: 1.1 h; t1/2 [3]: 0.763 h; Clint [4, 9]: <9.6 µL/min/mg; t1/2 [4, 9]: >2.42 h; 5-HT2C % Act @ Max Dose (5-HT2C receptor): 95.0% |
| CCNCCc1c[nH]c2cccc(O)c12 [Compound 5, 3-(2-(ethylamino)ethyl)-1H-indol-4-ol] | 2.63 h | 61.5% | 161 ng·h/mL | 350 ng/mL | 0.65 h | – | 3.06 h | 67.2% | > 2.42 h | < 9.6 µL/min/mg | – | 76.2% | > 2.42 h | – | – | 4060 nM | 53.8% | – | – | – | microsomal CLint [5]: < 15.9 µL/min/mg |
| CCCN(CC)CCc1c[nH]c2ccccc12 [EPT, N-ethyl-N-propyltryptamine, reference compound] | – | – | – | – | – | – | – | – | – | – | more stable | 95.1% | – | 80.4% | 33.4 nM | 264 nM | 45.02% | <15.9 µL/min/mg | >2.42 h | 75.5% | EC50 (5-HT1A; Ca2+ flux, CHO cells, ND = not determined due to lack of measurable agonism, read-out: 5-HT1A EC50): 88700 nM; EC50 (5-HT2B; HEK293, ND = not determined due to lack of measurable agonism, read-out: 5-HT2B EC50): 40.3 nM; EC50 (5-HT2A [7]): 30.5 nM; 5-HT2C % Act @ Max Dose (5-HT2C receptor): 90.8% |
| CCN(C)CCc1c[nH]c2ccccc12 [MET, N-methyl-N-ethyltryptamine, reference compound] | – | – | – | – | – | – | – | – | – | – | more stable | 84.5% | – | 11.9% | 28.3 nM | 183 nM | 71.00% | <15.9 µL/min/mg | >2.42 h | 71.4% | EC50 (5-HT1A): 57900 nM; EC50 (5-HT2A [7]): 17.1 nM; Ki (5-HT2A [8]): 128 nM |
| CN(C)CCc1c[nH]c2cccc(O)c12 [Psilocin, psilocin, reference compound] | – | 46.1% | 146 ng·h/mL | 179 ng/mL | 1.56 h | much longer half-lives | – | 97.6% | – | – | stable | 112.1% | – | – | – | – | – | <15.9 µL/min/mg | >2.42 h | 0.720% | t1/2 [1]: 1.913 h; t1/2 [3]: >4.818 h |
